Source: a melting point compilation (Tetko et al.; mined from patent text by program, amines drawn as free bases though some values may be those of a salt)
Residues, ends and D or L forms follow the SMILES beside them. *: point of attachment. Boc = CC(C)(C)OC(=O)*

`CCCCN(CC(=O)O)S(=O)(=O)c1ccc(N2CCC(NC[C@H](O)c3ccc(O)c(NS(C)(=O)=O)c3)CC2)cc1` showed a melting point of 125 to 138 °C.
`O=C(OCc1ccc(OCc2ccc(Cl)cc2)cc1)c1cccnc1` gave a melting point of 101 to 102 °C.
With `CC(C)C(Oc1ccccc1)C(=O)NCCO[N+](=O)[O-]` (configuration not stated) the melting point was 76 to 77 °C.
For `O=C1C=C(O)CC(c2ccccc2)O1` (configuration not stated), the melting point was 145 to 146 °C.
Compound `COC1(OC)CC(Nc2ncnc3c2ncn3C2OC(CO)C(O)C2O)NC1=O` (configuration not stated) has a melting point of 176 to 178 °C.
For `Cc1cc(=O)c(O)c(C(C)O)o1` (configuration not stated), the melting point was 127 to 130 °C.
With `CCOC(=O)c1csc(Nc2ccc(F)cc2)n1` the melting point was 133 to 136 °C.
With `COc1ccc(N2CCN(c3c(C)c(C)c4c(c3C)CC(C)(CN3CCS(=O)(=O)CC3)O4)CC2)cc1` (configuration not stated) the melting point was 145 to 164 °C.
Compound `C#CCCCOc1cc(/C=C/C(=O)Nc2ccccc2C(=O)O)ccc1OC` has a melting point of 154 to 156 °C.
With `O=C(O)Cn1cc(C(=O)O)c(=O)c2ccccc(=O)c21` the melting point was greater than 250 °C.
`COC(=O)c1ccccc1C(=O)c1ccc(O)cc1` showed a melting point of 147 to 149 °C.
Work on `COc1cc2nc(N3CCc4c(ncnc4N4CCOCC4)C3)[nH]c(=O)c2cc1OC` yielded a melting point of 288 to 290 °C.
Work on `Cc1cccc(-c2[nH]c(C(C)C)nc2-c2cccc(-c3ccc(C)[nH]3)c2)n1` yielded a melting point of 128 to 130 °C.
With `CCSC1=NCC(=O)N1c1cc(Cl)ccc1OC` the melting point was 113 to 115 °C.
`C=CCOC(=O)c1cccc2c1N=C(c1ccccc1Cl)CC2=O` showed a melting point of 121 °C.
For `Cn1cncc1C(O)(c1ccc(Cl)cc1)c1ccc2c(c1)c(-c1cccc(Cl)c1)cc(=O)n2C` (configuration not stated), the melting point was 234 °C.
Compound `Nc1nc2c(s1)CC(NC(=O)CNC(=O)[C@@H](Cc1ccccc1)NS(=O)(=O)Cc1ccccc1)CC2` (some centres not stated) has a melting point of 119 to 122 °C.
`CN(C)C[C@@H]1NCCC[C@H]1O` (relative stereo) gave a melting point of 50 to 60 °C.
With `O=C(O)C(Cc1ccc2c(c1)OCO2)Cc1ccc2c(c1)OCO2` the melting point was 191 to 193 °C.
`COc1ccc(C2=NN(C3CCN(C(=O)N4CCOCC4)CC3)C(=O)[C@H]3CC=CC[C@@H]23)cc1Cl` (relative stereo) showed a melting point of 185 to 186 °C.
In the case of `O=Cc1c(O)cccc1OCc1ccccc1C(=O)O`, the melting point is reported as 218 to 220 °C.
`Nc1nc(-c2ccc(CCNC(=O)Cc3ccccc3)cc2)cs1` showed a melting point of 176 to 177 °C.
`O=C(O)Cc1ccc2c(c1)[nH]c1ccccc12` showed a melting point of 150 to 152 °C.
`COc1ccc2cccc(C#N)c2c1` gave a melting point of 62 to 66 °C.
With `N[C@@H](Cc1ccccc1)C(=O)N1CCC[C@H]1C(=O)OCc1ccccc1` the melting point was 120 to 121 °C.
With `CCCCCCCCCCCCCCCCCC(=O)Nc1cccc(C(=O)N(CC(=O)OCC)CC(=O)OCC)c1` the melting point was 76 to 79 °C.
`CN1C(=O)N(Cc2ccccc2)CC1(CCO)c1ccc(Cl)c(Cl)c1` (configuration not stated) gave a melting point of 118 °C.
In the case of `CC(C)(C)OC(=O)CC(NC(=O)C1CCCN2C(=O)CCC(NC(=O)c3ccccc3)C(=O)N12)C(=O)COC(=O)c1c(Cl)cccc1Cl` (configuration not stated), the melting point is reported as 102 to 107 °C.
In the case of `C/C(=C(\Br)C=O)c1ccc2c(c1)C(C)(C)CCC2(C)C`, the melting point is reported as 115 to 117 °C.
`CCn1ccnc1CNC(=O)c1[nH]c2ccc(Cl)cc2c1S(=O)(=O)c1ccccc1` showed a melting point of 204 to 206 °C.
In the case of `O=C(Nc1ccnc(Cl)c1)NC1CCCC1`, the melting point is reported as 119 to 121 °C.
Compound `O=C(O)c1ccc2sc3ccccc3c2c1` has a melting point of 281 to 283 °C.
For `c1cc2cc[nH]c2cn1`, the melting point was 132 to 134 °C.
In the case of `CN(C)Cc1noc(-c2nn(Cc3ccccc3)c3ccccc23)n1`, the melting point is reported as 93 to 95 °C.
`C#CCON=Cc1cc(Cl)ccc1O` gave a melting point of 71 to 73 °C.
Work on `CC1(C)CCC(OC2=C(c3ccc(S(C)(=O)=O)cc3)C(C)(C)OC2=O)C1` (configuration not stated) yielded a melting point of 99 to 100 °C.
Work on `COc1ccc2c(c1)C(c1ccccc1)C(=O)NCC2` (configuration not stated) yielded a melting point of 155 to 170 °C.
Work on `CCCc1c(OCCCOc2ccc(NC(=O)C(=O)O)cc2OC)ccc(C(C)=O)c1O` yielded a melting point of 125 to 127 °C.
`CN(C)C=CC(=O)c1ccncc1` showed a melting point of 114 to 116 °C.
Work on `COC12CC(CNC(=S)NC(C)=O)CN(C)C1Cc1c[nH]c3cccc2c13` (configuration not stated) yielded a melting point of 212 to 214 °C.
`Cc1[nH]c(=O)[nH]c1C(=O)Cc1ccccc1` showed a melting point of 239 to 240 °C.
Compound `CC(C)Oc1c(CO)cnc2c(Cl)cccc12` has a melting point of 88 to 89 °C.
Work on `CCSc1ccc(SCC)c(C#N)n1` yielded a melting point of 63 to 64 °C.
For `Cc1ccc(-c2ccc3c(c2)C=C(C(=O)Nc2ccc(CCl)cc2)CCO3)cc1`, the melting point was 164 °C.
Work on `Cc1ccc(-c2ccnc3c(C(=O)c4cccs4)cnn23)cc1NC(=O)OC(C)C` yielded a melting point of 198 to 200 °C.
In the case of `Cc1cc(-c2ccc(C(F)(F)F)nc2)nc(-c2cccc(-c3cccc(S(N)(=O)=O)c3)c2)n1`, the melting point is reported as 220 °C.
For `Cc1c(Br)ccc(S(C)(=O)=O)c1S(C)(=O)=O`, the melting point was 169 to 171 °C.
`CCCNC(=O)N1CCc2cc(S(=O)(=O)N3CC(c4ccccc4)NC3=O)ccc21` (configuration not stated) showed a melting point of 197 to 199 °C.
`CCOC(=O)Cc1c(-c2ccccc2)c2cc(COC(C)=O)c(COC(C)=O)cc2oc1=O` gave a melting point of 95 to 96 °C.
With `CCOC(=O)c1ccc(SC)cc1C(=O)OCC` the melting point was 178 to 181 °C.
For `COc1cc2c(cc1-c1c(C)nn(C)c1C)-c1c(-c3cccs3)c3c(n1CC2)C(=O)N(C(C)C)CCNC3`, the melting point was 250 to 252 °C.
For `Cn1c(C(F)(F)F)cc(=O)n(-c2cc(OC=O)c(Cl)cc2F)c1=O`, the melting point was 97 to 99 °C.
For `N#Cc1ccc(-c2cn(-c3ccc(I)cc3)c(SCc3ccccn3)n2)cc1`, the melting point was 180 to 184 °C.
With `CN[C@H]1CCN(c2c(-c3ccccc3)c(C)c(C#N)c3nc(C(=O)N(C)C)oc23)C1` the melting point was 148 to 151 °C.
In the case of `O=C1COC(CCCOC(=O)c2ccccc2)(c2ccc(Cl)c(Cl)c2)CN1` (configuration not stated), the melting point is reported as 92 °C.
`CCOC(=O)c1c(-c2ccccc2)c(-c2ccc(F)cc2)c(C=O)n1C(C)C` showed a melting point of 88 to 90 °C.
Compound `COC(=O)CNC(=O)CNC(=O)CNC(=O)OC(C)(C)C` (Boc-Gly-Gly-Gly-OMe) has a melting point of 122 to 128 °C.
`Cc1cc(C(C)(C)CCl)c(Cl)nn1` showed a melting point of 41 to 42 °C.
`CC1(C)CC(=C(c2ccc(O)cc2)c2ccc(OCC(=O)O)cc2)CC(C)(C)C1` showed a melting point of 163 to 164 °C.
In the case of `O=C1C(Cl)=C(c2ccccc2)C(=O)c2ccccc21`, the melting point is reported as 111 to 112 °C.
For `Cc1cc(=O)c(-c2ccc(Oc3ccc(S(C)(=O)=O)cc3)cc2)c(C)o1`, the melting point was 170 to 173 °C.
`N#Cc1cc(O)c2[nH]c(=O)oc2c1` showed a melting point greater than 220 °C.
For `Cn1ncc(C(=O)N2CCCC2)c1C(=O)Nc1cc2nc(-c3ccccc3)nn2cc1F`, the melting point was 250 to 251 °C.
Work on `CC1=C2CCN(CCC(N)=O)CC2c2ccccc21` (configuration not stated) yielded a melting point of 169 to 170 °C.
For `CCN(CC1(C(F)(F)F)c2cc(Cl)ccc2Nc2ncccc21)C(C)C` (configuration not stated), the melting point was 140 to 141 °C.
In the case of `CC(O)c1ccc(Cc2cn(-c3ccc(F)cc3)c3ncccc3c2=O)cc1` (configuration not stated), the melting point is reported as 197 to 198 °C.
`Clc1ccc(C(Cn2cncn2)OCc2ccccc2Cl)c(Cl)c1` (configuration not stated) showed a melting point of 106 °C.
In the case of `Oc1cc2c(cc1CNc1ccccc1)OCCC2`, the melting point is reported as 135 to 137 °C.
Work on `CCCCn1c(=O)c2c(ncn2S(=O)(=O)c2cccc3ccccc23)n(CCCC)c1=O` yielded a melting point of 135 to 136 °C.
`CC(C)c1ccc(Oc2ccc(CCNc3ncnc4nccnc34)cc2)cc1` gave a melting point of 105 to 106 °C.
With `Oc1ccc2cc(-c3nc4ccc(O)cc4o3)ccc2c1` the melting point was 288 to 290 °C.
With `CCC1(CCCCCBr)C(=O)Nc2cc(F)ccc21` (configuration not stated) the melting point was 95 to 96 °C.
